Measurements as given in patent US8846730B2, “Compounds as cannabinoid receptor ligands” (priority 2008, dated 2014).
Read-outs that look alike come from different tables or passages of the source.

Tests used:
human CB2 receptors = human CB2 receptors (Homo sapiens (Human), UniProt P34972); experiment: human CB2 radioligand binding assay ([3H]CP 55,940 competition)
Protocol: (§1) The CB1 and CB2 radioligand binding assays described herein are utilized to ascertain the affinity of compounds of the present application for binding to CB2 relative to CB1 receptors.
HEK293 cells stably expressing human CB2 receptors were grown until a confluent monolayer was formed. Briefly, the cells were harvested and homogenized in TE buffer (50 mM Tris-HCl, 1 mM MgCl2, and 1 mM EDTA) using a polytron for 2×10 second bursts in the presence of protease inhibitors, followed by centrifugation at 45,000×g for 20 minutes. The final membrane pellet was re-homogenized in storage buffer (50 mM Tris-HCl, 1 mM MgCl2, and 1 mM EDTA and 10% sucrose) and frozen at −78° C. until used. Saturation binding reactions were initiated by the addition of membrane preparation (protein concentration of 5 μg/well for human CB2) into wells of a deep well plate containing [^3H]CP 55,940 (120 Ci/mmol, a nonselective CB agonist commercially available from Tocris) in assay buffer (50 mM Tris, 2.5 mM EDTA, 5 mM MgCl2, and 0.5 mg/mL fatty acid free BSA, pH 7.4). After 90 min incubation at 30° C., binding reaction was terminated by the addition of 300 μL/well of cold assay buffer followed by rapid vacuum filtration through a UniFilter-96 GF/C filter plates (pre-soaked in 1 mg/mL BSA for 2 hours). The bound activity was counted in a TopCount using Microscint-20. Saturation experiments were conducted with twelve concentrations of [^3H]CP 55,940 ranging from 0.01 to 8 nM. Competition experiments were conducted with 0.5 nM [^3H]CP 55,940 and five concentrations (0.01 nM to 10 μM) of displacing ligands. The addition of 10 μM unlabeled CP 55,940 (Tocris, Ellisville, Mo.) was used to assess nonspecific binding.

rat CB2 receptors = rat CB2 receptors (Rattus norvegicus (Rat), UniProt Q9QZN9); experiment: rat CB2 radioligand binding assay ([3H]CP 55,940 competition); settings: HEK293 membranes, 0.5 nM [3H]CP 55,940
Protocol: as §1
HEK293 cells stably expressing rat CB2 receptors were grown until a confluent monolayer was formed. Briefly, the cells were harvested and homogenized in TE buffer (50 mM Tris-HCl, 1 mM MgCl2, and 1 mM EDTA) using a polytron for 2×10 second bursts in the presence of protease inhibitors, followed by centrifugation at 45,000×g for 20 minutes. The final membrane pellet was re-homogenized in storage buffer (50 mM Tris-HCl, 1 mM MgCl2, and 1 mM EDTA and 10% sucrose) and frozen at −78° C. until used. Saturation binding reactions were initiated by the addition of membrane preparation (protein concentration of 20 μg/well for rat CB2) into wells of a deep well plate containing [^3H]CP 55,940 (120 Ci/mmol, a nonselective CB agonist commercially available from Tocris) in assay buffer (50 mM Tris, 2.5 mM EDTA, 5 mM MgCl2, and 0.5 mg/mL fatty acid free BSA, pH 7.4). After 45 min incubation at 30° C., binding reaction was terminated by the addition of 300 μl/well of cold assay buffer followed by rapid vacuum filtration through a UniFilter-96 GF/C filter plates (pre-soaked in 1 mg/mL BSA for 2 hours). The bound activity was counted in a TopCount using Microscint-20. Saturation experiments were conducted with twelve concentrations of [^3H]CP 55,940 ranging from 0.01 to 8 nM. Competition experiments were conducted with 0.5 nM [^3H]CP 55,940 and five concentrations of displacing ligands selected from the range of 0.01 nM to 10 μM. The addition of 10 μM unlabeled CP 55,940 (Tocris, Ellisville, Mo.) was used to assess nonspecific binding.

[1] = target: rat CB2 receptors (HEK cells) (Rattus norvegicus (Rat), UniProt Q9QZN9); experiment: rat CB2 cyclase functional assay (HitHunter cAMP); assay type: cell-based
Protocol: (§2) The cyclase functional assays were performed using the HitHunter™ cAMP assay kit from DiscoveRx (Fremont, Calif.) according to vendor's protocol. Briefly, HEK cells expressing CB2 or CB1 receptors (rat or human) were detached using cell dissociation buffer (Invitrogen, Carlsbad, Calif.), dispersed and placed in suspension at 10,000 cells per well in 96 well plates prior to the assay. Cell suspensions were incubated at 37° C. for 20 min with variable concentrations of test ligands and or 10 μM CP 55,940-positive control in the presence of a fixed concentration of forskolin (18 μM for rat CB2 and 37 μM for rat CB1) in Dulbescco's phosphate-buffered saline (Invitrogen, Carlsbad, Calif.) supplemented with bovine serum albumin (0.01% final concentration). The reactions were terminated by the addition of lysis buffer and the luminescence was detected following the procedure according to the manufacturer's instructions. EC50 values were calculated using sigmoidal dose-response curve fitting from Prism (GraphPad).

[2] = target: rat CB1 receptors (HEK cells) (Rattus norvegicus (Rat), UniProt P20272); experiment: rat CB1 cyclase functional assay (HitHunter cAMP); assay type: cell-based
Chain of rat CB1 receptors (HEK cells) (P20272 whole entry): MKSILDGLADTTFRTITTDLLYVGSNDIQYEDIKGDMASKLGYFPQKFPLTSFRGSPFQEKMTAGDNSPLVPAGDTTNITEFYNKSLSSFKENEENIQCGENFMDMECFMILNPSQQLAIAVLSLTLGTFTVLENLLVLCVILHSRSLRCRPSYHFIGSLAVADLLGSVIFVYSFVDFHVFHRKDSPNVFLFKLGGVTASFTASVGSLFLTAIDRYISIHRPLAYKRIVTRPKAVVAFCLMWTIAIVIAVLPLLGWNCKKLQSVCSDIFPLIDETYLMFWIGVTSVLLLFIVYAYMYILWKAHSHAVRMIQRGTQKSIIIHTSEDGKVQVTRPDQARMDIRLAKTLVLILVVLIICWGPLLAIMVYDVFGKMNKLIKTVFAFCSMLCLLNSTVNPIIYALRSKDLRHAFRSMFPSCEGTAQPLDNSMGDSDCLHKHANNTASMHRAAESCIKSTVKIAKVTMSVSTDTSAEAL
Protocol: as §2

[3] = HEK293 membranes, 0.5 nM [3H]CP 55,940, read-out: human CB2 (Ki)
[4] = HEK cells, forskolin 18 μM, read-out: rat CB2 cyclase (EC50)

Chain of human CB2 receptors (P34972 whole entry): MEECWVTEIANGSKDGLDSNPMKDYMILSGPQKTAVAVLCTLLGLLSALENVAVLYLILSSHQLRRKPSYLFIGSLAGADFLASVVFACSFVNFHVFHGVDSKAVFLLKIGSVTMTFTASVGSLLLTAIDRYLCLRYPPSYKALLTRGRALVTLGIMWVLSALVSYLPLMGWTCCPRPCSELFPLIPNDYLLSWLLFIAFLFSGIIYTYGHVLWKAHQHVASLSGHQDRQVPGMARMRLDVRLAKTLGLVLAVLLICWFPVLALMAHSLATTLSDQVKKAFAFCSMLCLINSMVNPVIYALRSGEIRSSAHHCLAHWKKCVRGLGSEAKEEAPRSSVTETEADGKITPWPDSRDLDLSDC

| SMILES | Ki (human CB2 receptors; [3]) [nM] | Ki (rat CB2 receptors) [nM] | EC50 [1] [nM] | EC50 [2] [µM] | EC50 [1, 4] [nM] | EC50 ([2]; HEK cells, forskolin 37 μM, read-out: rCB1 cyclase (EC50)) [µM] | Ki (human CB2 receptors) [nM] |
| --- | --- | --- | --- | --- | --- | --- | --- |
| CC(C)(C)c1cn(C[C@H]2CCCO2)/c(=N/C(=O)c2cc(C(F)(F)F)ccc2OC[C@@H]2CCCN2)s1 [Example 44, N-[(2Z)-5-tert-butyl-3-[(2R)-tetrahydrofuran-2-ylmethyl]-1,3-thiazol-2(3H)-ylidene]-2-[(2S)-pyrrolidin-2-ylmethoxy]-5-(trifluoromethyl)benzamide] | 4.6 | 2 | 0.39 | 4.73 | – | – | – |
| CN1C(=O)CC[C@H]1COc1ccc(C(F)(F)F)cc1C(=O)/N=c1\sc(C(C)(C)C)cn1C[C@H]1CCCO1 [Example 43, N-[(2Z)-5-tert-butyl-3-[(2R)-tetrahydrofuran-2-ylmethyl]-1,3-thiazol-2(3H)-ylidene]-2-{[(2S)-1-methyl-5-oxopyrrolidin-2-yl]methoxy}-5-(trifluoromethyl)benzamide] | 62 | 3.3 | – | 6.56 | 2.09 | – | – |
| CC(C)(C)c1cn(C[C@H]2CCCO2)/c(=N/C(=O)c2cc(C(F)(F)F)ccc2OCc2cnccn2)s1 [Example 19, N-[(2Z)-5-tert-butyl-3-[(2R)-tetrahydrofuran-2-ylmethyl]-1,3-thiazol-2(3H)-ylidene]-2-(pyrazin-2-ylmethoxy)-5-(trifluoromethyl)benzamide] | 5 | 5 | – | 3.39 | 0.41 | – | – |
| CC(C)(C)c1cn(C[C@H]2CCCO2)/c(=N/C(=O)c2cc(C(F)(F)F)ccc2OC[C@@H]2CCCN2S(C)(=O)=O)s1 [Example 48, N-[(2Z)-5-tert-butyl-3-[(2R)-tetrahydrofuran-2-ylmethyl]-1,3-thiazol-2(3H)-ylidene]-2-{[(2S)-1-(methylsulfonyl)pyrrolidin-2-yl]methoxy}-5-(trifluoromethyl)benzamide] | 16 | 3 | – | 8.65 | 0.39 | – | – |
| CN1CC[C@@H](COc2ccc(C(F)(F)F)cc2C(=O)/N=c2\sc(C(C)(C)C)cn2C[C@H]2CCCO2)C1 [Example 30, N-[(2Z)-5-tert-butyl-3-[(2R)-tetrahydrofuran-2-ylmethyl]-1,3-thiazol-2(3H)-ylidene]-2-{[(3R)-1-methylpyrrolidin-3-yl]methoxy}-5-(trifluoromethyl)benzamide] | 141 | 29 | 4.98 | 12.1 | – | – | – |
| CC(C)(C)c1cn(C[C@H]2CCCO2)/c(=N/C(=O)c2cc(C(F)(F)F)ccc2OC[C@H]2CCC[N+]2(C)[O-])s1 (stereo partly drawn) [Example 49] | 24 | 12 | – | – | 0.45 | 7.76 | – |
| CC(COc1ccc(C(F)(F)F)cc1C(=O)/N=c1\sc(C(C)(C)C)cn1C[C@H]1CCCO1)=NOC1CCCCO1 (stereo partly drawn) [Example 63, N-[(2Z)-5-tert-butyl-3-[(2R)-tetrahydrofuran-2-ylmethyl]-1,3-thiazol-2(3H)-ylidene]-2-({2-[(tetrahydro-2H-pyran-2-yloxy)imino]propyl}oxy)-5-(trifluoromethyl)benzamide] | – | 6.6 | – | > 27 | 2.15 | – | 25 |
| CN1C[C@@H](F)C[C@H]1COc1ccc(C(F)(F)F)cc1C(=O)/N=c1\sc(C(C)(C)C)cn1C[C@H]1CCCO1 [Example 53, N-[(2Z)-5-tert-butyl-3-[(2R)-tetrahydrofuran-2-ylmethyl]-1,3-thiazol-2(3H)-ylidene]-2-{[(2S,4S)-4-fluoro-1-methylpyrrolidin-2-yl]methoxy}-5-(trifluoromethyl)benzamide] | 3 | 3.6 | – | 1.13 | 0.12 | – | – |
| CC(C)(C)c1cn(C[C@H]2CCCO2)/c(=N/C(=O)c2cc(C(F)(F)F)ccc2OCCNCCO)s1 [Example 58, N-[(2Z)-5-tert-butyl-3-[(2R)-tetrahydrofuran-2-ylmethyl]-1,3-thiazol-2(3H)-ylidene]-2-{2-[(2-hydroxyethyl)amino]ethoxy}-5-(trifluoromethyl)benzamide] | 34 | 10 | 0.18 | 2.58 | – | – | – |
| CC(C)(O)CCOc1ccc(C(F)(F)F)cc1C(=O)/N=c1\sc(C(C)(C)C)cn1C[C@H]1CCCO1 [Example 50, N-[(2Z)-5-tert-butyl-3-[(2R)-tetrahydrofuran-2-ylmethyl]-1,3-thiazol-2(3H)-ylidene]-2-(3-hydroxy-3-methylbutoxy)-5-(trifluoromethyl)benzamide] | 1.3 | 0.5 | 1.21 | 1.87 | – | – | – |
| CC(C)(C)c1cn(C[C@H]2CCCO2)/c(=N/C(=O)c2cc(C(F)(F)F)ccc2OC[C@H]2CCN2)s1 [Example 1, 2-[(2R)-azetidin-2-ylmethoxy]-N-[(2Z)-5-tert-butyl-3-[(2R)-tetrahydrofuran-2-ylmethyl]-1,3-thiazol-2(3H)-ylidene]-5-(trifluoromethyl)benzamide] | 115 | 15 | – | 9.33 | 2.26 | – | – |
| CN1CCC[C@@H]1COc1ccc(C(F)(F)F)cc1C(=O)/N=c1\sc(C(C)(C)C)cn1C[C@H]1CCCO1 [Example 26, N-[(2Z)-5-tert-butyl-3-[(2R)-tetrahydrofuran-2-ylmethyl]-1,3-thiazol-2(3H)-ylidene]-2-{[(2R)-1-methylpyrrolidin-2-yl]methoxy}-5-(trifluoromethyl)benzamide] | 206 | 70 | – | 11.2 | 2.18 | – | – |
| CC(C)(C)c1cn(C[C@@H]2CCCO2)/c(=N/C(=O)c2cc(C(F)(F)F)ccc2OC[C@H](N)CO)s1 [Example 33, 2-{[(2R)-2-amino-3-hydroxypropyl]oxy}-N-[(2Z)-5-tert-butyl-3-[(2S)-tetrahydrofuran-2-ylmethyl]-1,3-thiazol-2(3H)-ylidene]-5-(trifluoromethyl)benzamide] | 7.4 | 2.8 | – | 1.17 | 0.18 | – | – |
| CC(C)(C)c1cn(C[C@H]2CCCO2)/c(=N/C(=O)c2cc(C(F)(F)F)ccc2OC[C@@H]2CNCCO2)s1 [Example 66, N-[(2Z)-5-tert-butyl-3-[(2R)-tetrahydrofuran-2-ylmethyl]-1,3-thiazol-2(3H)-ylidene]-2-[(2S)-morpholin-2-ylmethoxy]-5-(trifluoromethyl)benzamide] | 21 | 5.1 | 0.37 | 5.05 | – | – | – |
| CC(C)(C)c1cn(C[C@H]2CCCO2)/c(=N/C(=O)c2cc(C(F)(F)F)ccc2OC[C@H]2CCCO2)s1 [Example 22, N-[(2Z)-5-tert-butyl-3-[(2R)-tetrahydrofuran-2-ylmethyl]-1,3-thiazol-2(3H)-ylidene]-2-[(2R)-tetrahydrofuran-2-ylmethoxy]-5-(trifluoromethyl)benzamide] | 3 | 0.5 | 0.07 | 3.23 | – | – | – |
